Patent US7262173B2, “Chemosensitizing with liposomes containing oligonucleotides” (Georgetown University, priority 1997, dated 2007)

Columns and labels:
SQ-20B cells [1] = assay: Radiation survival dose response assay; assay type: cell-based, human; details: free ODN 100 μm
Procedure: The appropriate numbers of SQ-20B cells were seeded in duplicate T-25 tissue culture flasks (Corning, N.Y., USA) in medium containing 20% FBS, and allowed to attach for 8 h at 37° C. […] Irradiations were performed using ^137Cs gamma irradiator (JL Shepard MARK I irradiator) and a dose rate of 114 cGy/min. The cells were irradiated with total doses of 1 Gy, 3 Gy, 5 Gy and 13 Gy, followed by incubation for 2 h. The medium in all flasks was then replaced with 20% FBS containing medium and incubations continued for 7–10 days. Surviving colonies were fixed and stained with 0.5% methylene blue and 0.13% carbol fuchsin in methanol. Colonies containing 50 or more cells were scored and data were fitted to the computer-generated single-hit multitarget and linear-quadratic models of radiation survival response.
SQ-20B cells treated with liposome-encapsulated ATG-AS raf ODN (SEQ ID NO:1) are radiosensitive. Radiation survival dose responses of SQ-20B cells exposed to LE-ATG-AS raf ODN (SEQ ID NO:1), LE-ATG-S raf ODN (SEQ ID NO:3), or blank liposomes are presented in Table 1. […] The single-hit, multitarget (target model) and the linear quadratic model (LQ) are most commonly used to analyze cellular radiation survival. The target model is based on the parameters D0 and fl, where D0 is the inverse of the terminal slope of the survival curve and fl is the extrapolation of this slope to the ordinate. […]

SQ-20B cells [2] = assay: Intracellular raf ODN stability assay (PC/CHOL/DDAB liposomes); assay type: cell-based, human; details: 10 μM for 4 hours, then 20% FBS medium up to 24 hours; denaturing gel
Procedure: FIG. 2: (a) Time-course of cellular uptake of LE-ATG-AS raf ODN (SEQ ID NO:1), SQ-20B cells were incubated with ^32P-5 end labeled and an excess of unlabeled LE-ATG-AS raf ODN (SEQ ID NO:1) (10 μM) for indicated times as described in the experimental procedures. Results are mean±s.d from two independent experiments each performed in duplicate, (b) Intracellular stability of LE-ATG-AS raf ODN (SEQ ID NO:1). Cells were incubated with ^32P-end labeled and an excess of unlabeled LE-ATG-AS raf ODN (SEQ ID NO:1) (10 μM in 1% FBS containing medium for […], washed with PBS and then incubations continued in 20% FBS containing medium for 0 hour (lane 2), 2 hours (lane 3), 8 hours (lane 4), 12 hours (lane 5), and 24 hours (lane 6). Cells were lysed and ODNs in various samples were analyzed by denaturing gel electrophoresis as explained in the experimental procedures. Lane 2, radiolabeled control LE-ATG-AS raf ODN (SEQ ID NO: 1); 15-mer, ATG-AS raf ODN (SEQ ID NO:1) migrations of xylene cyanol (XC) and bromophenol blue (BP) are indicated.
For ODN stability studies, cells were seeded and incubated with 10 μM ^32P-labeled LE-ATG-AS raf ODN (SEQ ID NO:1) or ATG-AS raf ODN (SEQ ID NO:1) (1×10^6 c.p.m./ml) for 4 h at 37° C. in 1% FBS containing medium. […] ODNs were extracted with phenol: chloroform, and the aqueous fractions were collected and aliquots were analyzed by scintillation counting. […]

5′-GTG-CTCCATTGATGC-3′ (antisense GTGCTCCATTGATGC; DNA, linkages s1 o12 s1 (s phosphorothioate, o phosphodiester), methylation of C not given here) [ATG-AS raf ODN, antisense ODN to translation initiation site of human c-raf-1 cDNA; one terminal base linkage at each end phosphorothioate]
dose modifying factor (DMF) (SQ-20B cells [1]): approximately 1.4 | intracellular integrity of ODN (SQ-20B cells [2]): no detectable ODN at all time-points
